In US20230066268A1, “INDAZOLE DERIVATIVES AND METHODS OF USE THEREOF FOR THE TREATMENT OF HERPES VIRUSES” (Merck Sharp & Dohme LLC, priority 2019, published 2023):
Where two headings read alike, the source gives them in different places.

Experiments:
[1] = system: HSV-2 Strain G in Vero or MRCS cells; experiment: Viral qPCR assay, HSV-2; assay type: cell-based; conditions: read-out: HSV2 Cell (EC50), values marked *
Experimental: (§1) MRCS and Vero cells were obtained from ATCC and were maintained at 37° C./5% CO2/90% relative humidity in Minimal Essential Medium with 10% fetal bovine serum, […], 100 units/mL penicillin and 100 ug/mL streptomycin. Assay plates were prepared by dispensing compounds dissolved in DMSO into wells of 384 well collagen-coated plates using an ECHO acoustic dispenser. Each test compound was tested in a 10-point, serial 3-fold dilution. Controls included uninfected cells and infected cells treated only with DMSO. Assays were initiated by mixing selected cells, in suspension, with virus, and dispensing 50 μl/well infected cells to pre-plated compounds. Plates were incubated at 37° C./5% CO2/90% relative humidity for ˜72 hours to permit genomic replication, and infected cells were lysed by the addition of an equal volume of lysis buffer (10 mM Tris-HCl, pH8, 50 mM KCl, 2 mM MgCl2, 0.45% NP-40, 0.45% Tween-20, and 100 μg/mL proteinase K). An aliquot of the lysate was then transferred to a 384-well PCR plate and incubated at 56° C. for 1 hour, and then at 95° C. for 10 minutes. Levels of a viral gene were measured in 10 ul qPCR assays using TaqMan® Gene Expression Master Mix (Applied Biosystems) and an 7900HT Fast Real-Time PCR System with 384-Well Block Module. 7-point, serial 10-fold dilutions of a plasmid standard were run on each plate to generate a standard curve, and genome copies numbers were calculated by plotting experimental Ct onto linear regression of the standard curve. Compound effects on viral genome copy number were normalized to the window defined by the controls. Calculated % effects were fit using a 4-parameter algorithm, and EC50 was reported.
(§2) HCMV: Strain AD169 was assayed in MRC-5 cells and was used at 0.05-0.1 pfu/cell. The assays were performed in either growth media or in the same media with 50% fetal bovine serum. Primer-probe set was Thermo Fisher Assay ID=AIFATFK. HSV-1: Strain F was assayed in Vero or MRCS cells and was used at 0.0005-0.004 pfu/cell in growth medium. Primer-probe set was Thermo Fisher Assay ID=AIBJZIB. HSV-2: Strain G was assayed in Vero or MRCS cells and was used at 0.004-0.4 pfu/cell in growth medium. Primer-probe set was Thermo Fisher Assay ID=AICSXOJ.

[2] = system: HCMV Strain AD169 in MRC-5 cells; experiment: CMV cell assay; assay type: cell-based
Experimental: as §1, §2

[3] = system: HSV-1 Strain F in Vero or MRCS cells; experiment: Viral qPCR assay, HSV-1; assay type: cell-based; conditions: read-out: HSV1 Cell (EC50), values marked *
Experimental: as §1, §2

[4] = target: T1, Human cytomegalovirus DNA polymerase (Human cytomegalovirus, UniProt P08546); experiment: CMV polymerase assay (AlphaLISA); assay type: biochemical; conditions: polymerase assay of Example 27, HCMV polymerase 0.2 nM
T1 construct: made in house; host or cells: SF21 insect cells (baculovirus vector)
Experimental: (§3) CMV and VZV Polymerase Assays
(§4) Human cytomegalovirus and varicella zoster virus DNA polymerases were expressed via baculovirus vector in SF21 cells and purified. Heterodimeric nucleic acid substrate used in the herpesvirus polymerase reactions were generated by annealing a 59-mer template to a 17-mer digoxigenin-labeled primer. Polymerase (HCMV final concentration of 0.2 nM; VZV final concentration of 0.4 nM) was combined with an inhibitor compound or DMSO in assay buffer (10 mM HEPES, pH 7.5, 25 mM KCl, 25 mM NaCl, 5 mM MgCl2, 5% glycerol, 0.67 mg/mL bovine serum albumin, and 1 mM tris(2-carboxyethyl)phosphine)), and this mixture was pre-incubated for 30 minutes at room temperature in 384-well microtiter plates. The polymerization reaction was initiated by the addition of template/primer substrate (final concentration: 1.6 nM) and dNTPs (final concentration: 24 nM dCTP, 24 nMdGTP, 16 nM dATP, 16 nM dTTP, and 0.8 nM biotin-dUTP). After a 60 minute incubation period at 37° C., the reactions were terminated using quench buffer (25 mM HEPES pH 7.5, 100 mM NaCl, 0.25% Tween-20, 12 mM EDTA, and 1 mg/mL bovine serum albumin). Incorporation of biotinylated UTP was detected with 2.5-5 μg/mL anti-DIG AlphaLISA acceptor beads and 5-10 μg/mL streptavidin AlphaLISA donor beads (PerkinElmer). Compound effects were normalized to the window defined by the controls (DMSO only and pre-quenched wells) and were fit using a 4-parameter algorithm to report an IC50.

[5] = target: T2, varicella zoster virus DNA polymerase (Varicella-zoster virus, UniProt P09252); experiment: VZV polymerase assay (AlphaLISA); assay type: biochemical; conditions: polymerase assay of Example 27, VZV polymerase 0.4 nM
T2 construct: made in house; host or cells: SF21 insect cells (baculovirus vector)
Experimental: as §3, §4

[6] = system: HSV-2, strain G in Vero cells; experiment: HSV CPE assay, HSV-2; assay type: cell-based
Experimental: (§5) Vero cells were maintained at 37° C./5% CO2/90% relative humidity in Dulbecco's Modified Eagle's Medium with 10% fetal bovine serum, […], 100 units/mL penicillin and 100 ug/mL streptomycin. For this assay, Vero cells (maintained at 37° C./5% CO2/90% relative humidity in Dulbecco's Modified Eagle's Medium with 10% fetal bovine serum, […], 100 units/mL penicillin and 100 μg/mL streptomycin) were seeded in 96-well microtiter plates and incubated for about 15 hours. They were then infected with HSV-1, strain F, or with HSV-2, strain G, at a multiplicity of infection known to result in 85-95% loss of cell viability during the assays, in the same media with 2% fetal bovine serum. Test compounds were dissolved in DMSO, and 6 point serial 10-fold dilutions in DMSO were prepared. Test compounds were added to infected cells, and the plates were incubated at 37° C./5% CO2/90% relative humidity for 5 days. Each plate contains cell control wells (cells only), virus control wells (cells plus virus), drug colorimetric control wells (drug only), background control wells (media only) and experimental wells (drug plus cells plus virus). Cytoprotection was assessed by the addition of Celltiter®96 Reagent (Promega, Madison, Wis.), according to manufacturer's recommendations. % cytopathic effect (CPE) reduction was calculated and IC50 (concentration inhibition virus replication by 50%) was reported.

[7] = system: HSV-1, strain F in Vero cells; experiment: HSV CPE assay, HSV-1; assay type: cell-based
Experimental: as §5

[8] = Human alphaherpesvirus 2, starred values: viral qPCR assay of Example 26, ~72 hours, Vero or MRCS cells
[9] = Human betaherpesvirus 5, AD169, MRC5, footnote b: assay described in Example 25, read-out: CMV Cell^b (EC50)
[10] = Human alphaherpesvirus 1, starred values: viral qPCR assay of Example 26, ~72 hours, Vero or MRCS cells
[11] = Human alphaherpesvirus 2, 120 h, unstarred values: CPE assay of Example 25, Vero cells, 5 days, read-out: HSV2 Cell^b CPE(EC50)
[12] = Human alphaherpesvirus 1, 120 h, unstarred values: CPE assay of Example 25, Vero cells, 5 days, read-out: HSV1 Cell^b (EC50)
[13] = Human betaherpesvirus 5, AD169, MRC5, read-out: CMV Cell^b (EC50), footnote b: assay described in Example 25

T1 sequence (P08546 whole entry): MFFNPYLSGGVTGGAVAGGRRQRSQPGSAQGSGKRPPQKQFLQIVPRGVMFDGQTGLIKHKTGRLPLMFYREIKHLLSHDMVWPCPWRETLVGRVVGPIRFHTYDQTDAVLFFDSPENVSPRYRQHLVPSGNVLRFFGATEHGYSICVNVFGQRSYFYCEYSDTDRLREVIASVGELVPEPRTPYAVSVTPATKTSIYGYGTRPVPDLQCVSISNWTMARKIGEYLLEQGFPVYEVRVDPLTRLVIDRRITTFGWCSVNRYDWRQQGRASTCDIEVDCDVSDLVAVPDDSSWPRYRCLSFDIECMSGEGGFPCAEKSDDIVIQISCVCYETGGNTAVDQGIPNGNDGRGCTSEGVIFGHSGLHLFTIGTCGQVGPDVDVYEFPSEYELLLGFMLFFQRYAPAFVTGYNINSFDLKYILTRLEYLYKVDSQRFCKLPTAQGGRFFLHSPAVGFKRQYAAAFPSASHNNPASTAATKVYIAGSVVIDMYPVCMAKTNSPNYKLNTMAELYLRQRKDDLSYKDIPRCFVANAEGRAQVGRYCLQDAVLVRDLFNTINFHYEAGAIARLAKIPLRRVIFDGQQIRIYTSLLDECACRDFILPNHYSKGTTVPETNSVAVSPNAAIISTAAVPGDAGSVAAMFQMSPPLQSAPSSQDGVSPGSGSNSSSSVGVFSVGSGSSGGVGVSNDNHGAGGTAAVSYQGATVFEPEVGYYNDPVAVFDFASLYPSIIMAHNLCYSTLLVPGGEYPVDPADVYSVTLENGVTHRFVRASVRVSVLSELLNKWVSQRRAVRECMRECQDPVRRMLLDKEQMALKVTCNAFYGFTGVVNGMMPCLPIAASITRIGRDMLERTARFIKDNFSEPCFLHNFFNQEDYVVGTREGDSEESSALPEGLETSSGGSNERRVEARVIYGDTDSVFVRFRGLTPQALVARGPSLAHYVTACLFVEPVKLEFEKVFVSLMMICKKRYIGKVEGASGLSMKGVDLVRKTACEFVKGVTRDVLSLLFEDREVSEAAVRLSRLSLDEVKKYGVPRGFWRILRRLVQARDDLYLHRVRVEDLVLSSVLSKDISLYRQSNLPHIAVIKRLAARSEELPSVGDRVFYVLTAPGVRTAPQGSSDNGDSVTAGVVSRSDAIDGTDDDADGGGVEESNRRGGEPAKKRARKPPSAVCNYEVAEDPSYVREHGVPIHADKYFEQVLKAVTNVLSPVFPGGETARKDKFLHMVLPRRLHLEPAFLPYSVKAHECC
T2 sequence (P09252 whole entry): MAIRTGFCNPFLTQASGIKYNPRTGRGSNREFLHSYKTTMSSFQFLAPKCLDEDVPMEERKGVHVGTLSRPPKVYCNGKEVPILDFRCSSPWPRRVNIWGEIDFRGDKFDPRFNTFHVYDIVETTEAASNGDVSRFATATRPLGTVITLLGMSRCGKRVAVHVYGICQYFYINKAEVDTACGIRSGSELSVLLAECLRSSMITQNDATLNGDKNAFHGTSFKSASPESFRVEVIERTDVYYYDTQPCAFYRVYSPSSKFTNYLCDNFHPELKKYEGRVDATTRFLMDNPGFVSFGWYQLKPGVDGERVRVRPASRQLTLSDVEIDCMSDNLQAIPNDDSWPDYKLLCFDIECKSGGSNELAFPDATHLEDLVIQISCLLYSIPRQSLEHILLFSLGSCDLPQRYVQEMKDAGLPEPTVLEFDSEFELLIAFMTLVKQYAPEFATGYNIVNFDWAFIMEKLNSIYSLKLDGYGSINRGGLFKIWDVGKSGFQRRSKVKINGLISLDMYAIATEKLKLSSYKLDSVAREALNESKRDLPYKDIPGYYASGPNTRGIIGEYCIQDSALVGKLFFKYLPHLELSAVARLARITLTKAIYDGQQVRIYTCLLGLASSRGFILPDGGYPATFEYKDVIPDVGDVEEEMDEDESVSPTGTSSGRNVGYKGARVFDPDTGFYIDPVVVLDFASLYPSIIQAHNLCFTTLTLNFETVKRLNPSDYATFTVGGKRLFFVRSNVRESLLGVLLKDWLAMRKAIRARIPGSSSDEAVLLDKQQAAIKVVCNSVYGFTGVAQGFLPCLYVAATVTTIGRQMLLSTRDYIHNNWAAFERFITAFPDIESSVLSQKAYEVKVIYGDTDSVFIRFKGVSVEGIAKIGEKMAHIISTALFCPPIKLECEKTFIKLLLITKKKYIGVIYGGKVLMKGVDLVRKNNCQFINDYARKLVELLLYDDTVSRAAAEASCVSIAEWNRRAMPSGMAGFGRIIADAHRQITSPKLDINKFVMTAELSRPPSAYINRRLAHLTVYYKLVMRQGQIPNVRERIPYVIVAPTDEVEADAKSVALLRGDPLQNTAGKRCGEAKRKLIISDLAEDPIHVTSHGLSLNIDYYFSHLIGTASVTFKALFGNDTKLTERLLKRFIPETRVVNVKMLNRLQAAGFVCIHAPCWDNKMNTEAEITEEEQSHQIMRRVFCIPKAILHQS

Compound | IC50 ([4]; read-out: CMV^a (IC50)) [nM] | IC50 ([5]; read-out: VZV^a (IC50)) [nM] | EC50 [1, 8] [nM] | EC50 [2, 9] [nM] | EC50 [3, 10] [nM] | EC50 [6, 11] [nM] | EC50 [7, 12] [nM] | EC50 ([1]; Human alphaherpesvirus 2, Vero, 72 h) [nM] | EC50 [2, 13] [nM] | EC50 ([3]; Human alphaherpesvirus 1, Vero, 72 h) [nM] | IC50 ([4]; CMV^a (IC50)) [nM] | IC50 ([5]; VZV^a (IC50)) [nM] | EC50 ([6]; Human alphaherpesvirus 2, Vero, 120 h, read-out: HSV2 Cell^b CPE(EC50), unstarred values: CPE assay of Example 25, Vero cells, 5 days) [nM] | EC50 ([7]; Human alphaherpesvirus 1, Vero, 120 h, read-out: HSV1 Cell^b (EC50), unstarred values: CPE assay of Example 25, Vero cells, 5 days) [nM]
Cn1nc(C(=O)NCc2ccc(Cl)cc2)c2c3c(ccc21)C(N1CCOCC1)CC3 (stereo not drawn) [Compound 17] | 150 | 14 | 350 | 1000 | 310 | – | – | – | – | – | – | – | – | –
Cn1nc(C(=O)NCc2ccc(Cl)cc2)c2c3c(ccc21)C(N1CCOCC1)CC3 (single isomer, unassigned) [Compound 16] | 260 | 38 | – | 970 | – | 1600 | 1500 | – | – | – | – | – | – | –
NCCn1nc(C(=O)NCc2ccc(Cl)cc2)c2ccc(NCc3cnns3)c(Cl)c21 [Compound 3] | – | – | – | – | – | – | – | 170 | 71 | 85 | 9.6 | 2.9 | – | –
Cn1nc(C(=O)NCc2ccc(Cl)cc2)c2c(F)c(CN3CCOCC3)ccc21 [Compound 21] | 480 | 180 | – | 7200 | – | 3600 | 2200 | – | – | – | – | – | – | –
Cc1cc(CN2CCCS(=O)(=O)CC2)cc2c(C(=O)NCc3ccc(C#N)cc3)nn(CCC#N)c12 [Compound 8] | – | – | – | – | – | – | – | – | 150 | – | 103 | 62 | 22000 | 6400

Further lines, with some results ahead:

IC50 ([4]; read-out: CMV^a (IC50)) [nM] | IC50 ([5]; read-out: VZV^a (IC50)) [nM] | Compound | EC50 [1, 8] [nM] | EC50 [2, 9] [nM] | EC50 [3, 10] [nM] | EC50 [6, 11] [nM] | EC50 [7, 12] [nM] | EC50 ([1]; Human alphaherpesvirus 2, Vero, 72 h) [nM] | EC50 [2, 13] [nM] | EC50 ([3]; Human alphaherpesvirus 1, Vero, 72 h) [nM] | IC50 ([4]; CMV^a (IC50)) [nM] | IC50 ([5]; VZV^a (IC50)) [nM] | EC50 ([6]; Human alphaherpesvirus 2, Vero, 120 h, read-out: HSV2 Cell^b CPE(EC50), unstarred values: CPE assay of Example 25, Vero cells, 5 days) [nM] | EC50 ([7]; Human alphaherpesvirus 1, Vero, 120 h, read-out: HSV1 Cell^b (EC50), unstarred values: CPE assay of Example 25, Vero cells, 5 days) [nM]
67 | 24 | Cn1nc(C(=O)NCc2ccc(Cl)cc2)c2cc(C[C@H]3CCC(=O)N3)ccc21 [Compound 34] | 240 | 330 | 220 | – | – | – | – | – | – | – | – | –
25 | 14 | Cn1nc(C(=O)NCc2ccc(Cl)cc2)c2ccc(N3CCn4nncc4C3)c(Br)c21 [Compound 15] | – | 930 | – | 930 | 850 | – | – | – | – | – | – | –
41 | 12 | Cn1nncc1COc1ccc2c(C(=O)NCc3ccc(Cl)cc3)nn(C)c2c1Cl [Compound 10] | – | 460 | – | 590 | 250 | – | – | – | – | – | – | –
78 | 35 | Cn1nc(C(=O)NCc2ccc(Cl)cc2)c2cc(C[C@H]3COC(=O)N3)ccc21 [Compound 33] | 110 | 160 | 200 | – | – | – | – | – | – | – | – | –
